Results on one molecule are retold here after publication PMC4767605 (Cancer chemotherapy and pharmacology, 2016).

One data set concerns advanced solid tumors. The conditions noted are these: ASP9853 + docetaxel.
The nature of data set [1]: Phase I study: plasma pharmacokinetics of ASP9853 and docetaxel. The data set is classed as in vivo, human. The conditions noted are these: for Median ASP9853 Cmax / Median AUC24 for ASP9853: Cycle 1/Day 1.
In the next data set the test system is ovarian cancer (MCUAS). Nature of the data set: Ovarian cancer xenograft in mice, combination with paclitaxel. The conditions noted are these: ASP9853 in combination with paclitaxel, data not shown. The data set is classed as in vivo.
The mark [2] stands for this setting: Cohort 1: ASP9853 25 mg + docetaxel 60 mg/m^2.
The mark [3] stands for this setting: Cohort 2: ASP9853 25 mg + docetaxel 75 mg/m^2.
Where [4] appears, read: Cohort 3: ASP9853 37.5 mg + docetaxel 60 mg/m^2.
Where [5] appears, read: Cohort 4: ASP9853 50 mg + docetaxel 60 mg/m^2.

As for `O.O.O=C(/C=C/c1ccc(Cl)cc1)N[C@@H](Cc1ccccn1)C(=O)NCC(=O)N1CCC(Oc2cc(C(F)(F)F)ncn2)CC1` [ASP9853, (2E)-3-(4-chlorophenyl)-N-[(1S)-2-oxo-2-{[2-oxo-2-(4-{[6-(trifluoromethyl)-4-pyrimidinyl]oxy}-1-piperidinyl)ethyl]amino}-1-(2-pyridinylmethyl)ethyl]acrylamide dehydrate], the “Duration of stable disease, mean (SD)” value in the data set on advanced solid tumors is given as 49.4 (47.2) days. Further, the “Duration of stable disease, median [range]” value with advanced solid tumors is 78 [1–133] days. In addition, in the data set with advanced solid tumors (Eight patients), the “Patients with best overall response of stable disease” value is recorded as 38.1%. Besides, the Objective radiographic responses result in the data set on advanced solid tumors (eighteen patients evaluable) was “no objective radiographic responses were observed”. Moreover, in data set [1] (Cycle 1, Day 1, high interpatient variability), the “ASP9853 PK profiles in patients with versus without neutropenic DLTs” value is “no clear difference”. The “Median ASP9853 Cmax” value in data set [1] (setting [2]) amounted to 0.747 µg/mL; in data set [1] (setting [3]), 1.019 µg/mL; in data set [1] (setting [4]) it was 2.45 µg/mL; in data set [1] (setting [5]) it was 1.49 µg/mL. Besides, the “Median AUC24 for ASP9853” value amounted to 3.769 µg·h/mL in data set [1] (setting [2]), 8.839 µg·h/mL in data set [1] (setting [3]), 7.075 µg·h/mL in data set [1] (setting [4]) and 6.922 µg·h/mL in data set [1] (setting [5]). In addition, the “ASP9853 cleared from plasma within 24 hours after administration” value in data set [1] (in vivo) is “more than 95%”. In addition, in data set [1] (oral, patients with advanced solid tumors), the “Tmax of ASP9853” value was 30 to 252 min. Also, the “ASP9853 plasma exposure (AUC24) when administered in combination with docetaxel” value in data set [1] (sample size too small for statistical significance, data not shown) was “appeared lower”. The Tumor growth inhibition entry in the data set with ovarian cancer (MCUAS) is given as “greater tumor growth inhibition”.
